Data set [1] can be described thus: iron (III) affinity constants and pFe3+ by spectrophotometric titration. The class given is physicochemical. The following applies: for Log β1 / Log β2 / Log β3: DMSO: KCl (0.1 M) = 1:1.5 (v/v); for pFe^3+: calculated from Log β values obtained in DMSO: KCl (0.1 M) = 1:1.5 (v/v).
A further data set deals with T1, MAO-B (Homo sapiens, UniProt P27338).
T1 construct: purchased Sigma-Aldrich
T1 sequence (P27338 1-520): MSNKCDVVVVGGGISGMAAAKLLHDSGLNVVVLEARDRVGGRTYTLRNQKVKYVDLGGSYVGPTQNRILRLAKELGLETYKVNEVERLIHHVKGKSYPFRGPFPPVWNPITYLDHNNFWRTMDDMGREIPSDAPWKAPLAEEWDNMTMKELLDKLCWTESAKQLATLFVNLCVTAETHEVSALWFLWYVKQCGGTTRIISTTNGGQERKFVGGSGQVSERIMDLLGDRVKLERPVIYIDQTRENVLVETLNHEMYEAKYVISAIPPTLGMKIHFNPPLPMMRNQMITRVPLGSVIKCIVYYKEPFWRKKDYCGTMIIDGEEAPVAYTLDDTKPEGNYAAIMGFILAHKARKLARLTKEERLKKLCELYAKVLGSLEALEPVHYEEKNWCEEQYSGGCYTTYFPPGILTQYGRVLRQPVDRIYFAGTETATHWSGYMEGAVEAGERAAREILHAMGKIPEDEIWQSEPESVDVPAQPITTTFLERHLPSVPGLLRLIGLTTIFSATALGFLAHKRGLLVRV
Put plainly: hMAO-B inhibition assay. It is filed as biochemical. The following applies: for inhibition at 0.1 µM: hMAO-B, 100 nM, read-out: Inhibitory rate (%, 100 nM). As to the method: (§1) The reagents and enzymes (Human MAO-B and Human MAO-A) applied in this experiment were purchased from Sigma-Aldrich. According to the manuals, all components (substrate solution and enzyme solution) are diluted and placed aside for use. The detailed process has been mentioned in our early work[34].

The next data set deals with T2, Human MAO-A (Homo sapiens, UniProt P21397).
T2 construct: purchased Sigma-Aldrich
T2 sequence (P21397 1-527): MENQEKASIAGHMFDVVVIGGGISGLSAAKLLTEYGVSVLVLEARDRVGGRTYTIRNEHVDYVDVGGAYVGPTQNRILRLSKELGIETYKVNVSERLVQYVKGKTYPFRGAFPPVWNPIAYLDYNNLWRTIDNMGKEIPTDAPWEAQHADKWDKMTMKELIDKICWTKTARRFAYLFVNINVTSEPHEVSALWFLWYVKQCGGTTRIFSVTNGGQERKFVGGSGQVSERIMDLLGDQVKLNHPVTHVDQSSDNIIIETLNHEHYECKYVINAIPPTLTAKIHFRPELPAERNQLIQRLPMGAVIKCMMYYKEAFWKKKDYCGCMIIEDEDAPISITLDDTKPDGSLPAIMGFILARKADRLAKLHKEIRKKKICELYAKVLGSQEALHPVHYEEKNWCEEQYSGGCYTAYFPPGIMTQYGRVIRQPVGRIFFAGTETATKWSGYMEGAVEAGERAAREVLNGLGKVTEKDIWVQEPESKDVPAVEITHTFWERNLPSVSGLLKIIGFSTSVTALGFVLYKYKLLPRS
The data set is described as follows: hMAO-A inhibition assay. The following applies: read-out: hMAO-A inhibitory rate at 10 μM; 10 μM (highest concentration tested). It is filed as biochemical. As to the method:
Further, the inhibitory activity of compounds against hMAO-A isoform was tested and calculated as a selectivity index [Selectivity index (SI): IC50 (hMAO-A)/IC50 (hMAO-B)].
as §1

Data set [2] is described as follows: pKa determination by automated spectrophotometric titration. The following applies: 0.1 M KCl solution. It is filed as physicochemical.

The structures appear in SMILES notation. Read-outs that look alike come from different tables or passages of the source.

Take `Cc1c(O)c(=O)ccn1CCNC(=O)c1coc2ccccc2c1=O` [Compound 8a, N-(2–(3-hydroxy-2-methyl-4-oxopyridin-1(4H)-yl)ethyl)-4-oxo-4H-chromene-3-carboxamide]: the melting point – broadly, the temperature, or range, at which the solid turns liquid – was in the range of 268 to 270 °C. Moreover, in data set [1], the “Log β1” value is reported as 13.67, the “Log β2” value amounted to 25.22, the “Log β3” value is reported as 34.95 and the “pFe^3+” value is listed as 18.68. For the same compound, at MAO-B, the concentration for half-maximal inhibition (IC50) (commonly the concentration that inhibits the measured activity by half) was 112 ± 1.3 nM, the “SI: hMAO-B selectivity index = IC50 (hMAO-A)/IC50 (hMAO-B)” value (“SI: hMAO-B selectivity index = IC50” for short) is on record as more than 89 and the inhibition at 0.1 µM was found to be 42.2 ± 3.7%. Besides, the inhibition at 10 µM at Human MAO-A is less than 20%. Also, the pKa in data set [2] (read-out: pKa1) stood at 3.29. In data set [2] (read-out: pKa2), the pKa was found to be 9.67.
As to `Cc1ccc2c(=O)c(C(=O)NCCn3ccc(=O)c(O)c3C)coc2c1` [Compound 8b, N-(2–(3-hydroxy-2-methyl-4-oxopyridin-1(4H)-yl)ethyl)-7-methyl-4-oxo-4H-chromene-3-carboxamide], the melting point was in the range of 270 to 272 °C. For the same compound, in data set [1], the “Log β1” value turned out to be 13.74, the “Log β2” value came to 25.04, the “Log β3” value was 34.36 and the “pFe^3+” value is reported as 18.35. Besides, at MAO-B, the inhibition at 0.1 µM was found to be 35.79 ± 0.2%. The pKa in data set [2] (read-out: pKa1) was 3.32. For the same compound, the pKa in data set [2] (read-out: pKa2) was 9.58.
`Cc1ccc2occ(C(=O)NCCn3ccc(=O)c(O)c3C)c(=O)c2c1` [Compound 8c, N-(2–(3-hydroxy-2-methyl-4-oxopyridin-1(4H)-yl)ethyl)-6-methyl-4-oxo-4H-chromene-3-carboxamide] showed a melting point of 265 to 267 °C. Besides, in data set [1], the “Log β1” value worked out at 13.86, the “Log β2” value is reported as 25.07, the “Log β3” value worked out at 33.48 and the “pFe^3+” value is 17.19. In addition, at MAO-B, half-maximal inhibition (IC50) was put at 112 ± 5.7 nM, the “SI: hMAO-B selectivity index = IC50” value is recorded as more than 89 and the inhibition at 0.1 µM turned out to be 42.1 ± 0.8%. Moreover, the inhibition at 10 µM at Human MAO-A is less than 20%. Moreover, in data set [2] (read-out: pKa1), the pKa was found to be 3.26. In data set [2] (read-out: pKa2), the pKa came to 9.69.
`COc1ccc2c(=O)c(C(=O)NCCn3ccc(=O)c(O)c3C)coc2c1` [Compound 8d, N-(2–(3-hydroxy-2-methyl-4-oxopyridin-1(4H)-yl)ethyl)-7-methoxy-4-oxo-4H-chromene-3-carboxamide] displayed a melting point of 248 to 250 °C. For the same compound, in data set [1], the “Log β1” value is recorded as 13.82, the “Log β2” value is reported as 25.31, the “Log β3” value was determined as 34.23 and the “pFe^3+” value is 18.18. Further, at MAO-B, half-maximal inhibition (IC50) was put at 107 ± 5.6 nM, the “SI: hMAO-B selectivity index = IC50” value was more than 93 and the inhibition at 0.1 µM worked out at 41.9 ± 1.4%. Further, the inhibition at 10 µM at Human MAO-A was less than 20%. Besides, in data set [2] (read-out: pKa1), the pKa turned out to be 3.2. For the same compound, the pKa in data set [2] (read-out: pKa2) came to 9.6.
With `COc1ccc2occ(C(=O)NCCn3ccc(=O)c(O)c3C)c(=O)c2c1` [Compound 8e, N-(2–(3-hydroxy-2-methyl-4-oxopyridin-1(4H)-yl)ethyl)-6-methoxy-4-oxo-4H-chromene-3-carboxamide], the melting point is 260 to 262 °C. Moreover, in data set [1], the “Log β1” value came to 13.67, the “Log β2” value came to 25.38, the “Log β3” value came to 35.37 and the “pFe^3+” value is listed as 19.08. Besides, at MAO-B, the inhibition at 0.1 µM was found to be 34.3 ± 2.2%. Moreover, in data set [2] (read-out: pKa1), the pKa is 3.18. Also, the pKa in data set [2] (read-out: pKa2) was 9.67.
On to `Cc1c(O)c(=O)ccn1CCNC(=O)c1coc2cc(OCc3ccccc3)ccc2c1=O` [Compound 15a, 7-(Benzyloxy)-N-(2–(3-hydroxy-2-methyl-4-oxopyridin-1(4H)-yl)ethyl)-4-oxo-4H-chromene-3-carboxamide], for which the melting point is 225 to 227 °C. In data set [1], the “Log β1” value is 13.77, the “Log β2” value is 24.72, the “Log β3” value stood at 32.17 and the “pFe^3+” value is reported as 16.45. Further, the inhibition at 0.1 µM on MAO-B turned out to be 39 ± 1.1%. For the same compound, the pKa in data set [2] (read-out: pKa1) was determined as 3.3. The pKa in data set [2] (read-out: pKa2) worked out at 9.59.
Regarding `Cc1cccc(COc2ccc3c(=O)c(C(=O)NCCn4ccc(=O)c(O)c4C)coc3c2)c1` [Compound 15b, N-(2–(3-hydroxy-2-methyl-4-oxopyridin-1(4H)-yl)ethyl)-7-((3-methylbenzyl)oxy)-4-oxo-4H-chromene-3-carboxamide], the melting point is 238 to 240 °C. Also, in data set [1], the “Log β1” value was 13.64, the “Log β2” value came out at 25.57, the “Log β3” value was 34.21 and the “pFe^3+” value was 17.80. Moreover, the inhibition at 0.1 µM on MAO-B is 39.1 ± 1.1%. Also, the pKa in data set [2] (read-out: pKa1) is 3.06. Moreover, the pKa in data set [2] (read-out: pKa2) was 9.73.
As to `Cc1ccc(COc2ccc3c(=O)c(C(=O)NCCn4ccc(=O)c(O)c4C)coc3c2)cc1` [Compound 15c, N-(2–(3-hydroxy-2-methyl-4-oxopyridin-1(4H)-yl)ethyl)-7-((4-methylbenzyl)oxy)-4-oxo-4H-chromene-3-carboxamide], the melting point is 234 to 236 °C. Besides, in data set [1], the “Log β1” value is reported as 13.40, the “Log β2” value was determined as 23.16, the “Log β3” value amounted to 31.01 and the “pFe^3+” value is reported as 15.87. Also, the inhibition at 0.1 µM at MAO-B came out at 38.7 ± 0.5%. Moreover, in data set [2] (read-out: pKa1), the pKa amounted to 3.19. In addition, in data set [2] (read-out: pKa2), the pKa was 9.34.
For the compound `Cc1c(O)c(=O)ccn1CCNC(=O)c1coc2cc(OCc3cccc(F)c3)ccc2c1=O` [Compound 15d, 7-((3-Fluorobenzyl)oxy)-N-(2–(3-hydroxy-2-methyl-4-oxopyridin-1(4H)-yl)ethyl)-4-oxo-4H-chromene-3-carboxamide], the melting point lay in the range of 237 to 239 °C. In data set [1], the “Log β1” value is given as 13.50, the “Log β2” value is recorded as 25.31, the “Log β3” value is reported as 34.85 and the “pFe^3+” value is 19.01. For the same compound, the inhibition at 0.1 µM at MAO-B was 38.5 ± 1.4%. In data set [2] (read-out: pKa1), the pKa amounted to 3.36. Also, the pKa in data set [2] (read-out: pKa2) amounted to 9.52.
The compound `Cc1c(O)c(=O)ccn1CCNC(=O)c1coc2cc(OCc3ccc(Cl)cc3)ccc2c1=O` [Compound 15g, 7-((4-Chlorobenzyl)oxy)-N-(2–(3-hydroxy-2-methyl-4-oxopyridin-1(4H)-yl)ethyl)-4-oxo-4H-chromene-3-carboxamide] came in with a melting point of 241 to 243 °C. In data set [1], the “Log β1” value worked out at 13.82, the “Log β2” value came to 24.02, the “Log β3” value worked out at 31.70 and the “pFe^3+” value is recorded as 16.00. In addition, the inhibition at 0.1 µM at MAO-B stood at 39.1 ± 0.5%. Moreover, in data set [2] (read-out: pKa1), the pKa came to 3.25. The pKa in data set [2] (read-out: pKa2) was 9.56.
The compound `Cc1ccc(COc2ccc3c(=O)c(CNCCn4ccc(=O)c(O)c4C)coc3c2)cc1` [Compound 17h, 3-Hydroxy-2-methyl-1–(2-(((7-((4-methylbenzyl)oxy)-4-oxo-4H-chromen-3-yl)methyl)amino)ethyl)pyridin-4(1H)-one] returned a melting point of 134 to 136 °C. Further, in data set [1], the “Log β1” value is 12.87, the “Log β2” value amounted to 24.73, the “Log β3” value was 33.36 and the “pFe^3+” value was 17.34. Further, the inhibition at 0.1 µM at MAO-B was 30.1 ± 3.7%. The pKa in data set [2] (read-out: pKa1) is 2.56. Also, the pKa in data set [2] (read-out: pKa2) was determined as 9.59.
With `Cc1c(O)c(=O)ccn1CCNCc1coc2cc(OCc3cccc(F)c3)ccc2c1=O` [Compound 17i, 1–(2-(((7-((3-Fluorobenzyl)oxy)-4-oxo-4H-chromen-3-yl)methyl)amino)ethyl)-3-hydroxy-2-methylpyridin-4(1H)-one], the melting point was in the range of 215 to 217 °C. In data set [1], the “Log β1” value came out at 12.93, the “Log β2” value is on record as 24.99, the “Log β3” value is given as 34.10 and the “pFe^3+” value was 17.81. The inhibition at 0.1 µM on MAO-B was found to be 39.48 ± 0.3%. For the same compound, the pKa in data set [2] (read-out: pKa1) worked out at 2.58. Further, the pKa in data set [2] (read-out: pKa2) is 9.68.

The values are drawn from article PMC9762789, “Chromone-based monoamine oxidase B inhibitor with potential iron-chelating activity for the treatment of Alzheimer’s disease” (Journal of Enzyme Inhibition and Medicinal Chemistry, 2022).
